According to patent US8741807B2 (priority 2011, dated 2014):
Entries after “also recorded” stand apart in the source; their conditions may differ.

Experiments:
[1] = tested on: leaf blade of rice plant (variety name: Nipponbare); assay: Cell death spot formation on rice plant leaf blade after dropping spermidine derivative solution; type: in vivo; details: for formation of cell death spots: 1 mM aqueous solution (0.1% Tween 20), 5 μl dropped on rice leaf blade, visually evaluated; for severity of cell death compared with the compounds not introduced with hydroxyl group (Lau or ^1N Lau): same manner as Example 4, rice leaf blade
Text: (§1) It is known that spermidine treatment of leaf blades forms HR (Hypersensitive Response) like cell death spots in various plant species (Plant Physiol., 132(4), pp. 1973-1981, […]).
The results of examination for severity of cell death are shown in FIG. 12, and those for formation of cell death spots are shown in FIG. 13. The severity of cell death was enhanced by each of the compounds introduced with one hydroxyl group at the terminal carbon atom of the lauroyl group (HydLau: YIS12OH4N, 1NHydLau: YIS12OH1N) compared with the compounds not introduced with hydroxyl group (Lau or ^1N Lau).

[2] = tested on: rice blast fungus (Kyu89-246, MAFF101506, race 003.0); type: cell-based; details: for antifungal activity against the rice blast fungus: even at the 10 mM concentration; for formation of inhibition ring against the rice blast fungus: filter paper disks, 1 mM, 5 mM or 10 mM, 28° C., 5 to 6 days, light shielding
Arabidopsis thaliana = assay: Cell death in Arabidopsis thaliana by visual inspection; type: in vivo; details: same manner as Example 4, visual inspection, 3 and 7 days
Text: as §1

PR1 gene = PR1 gene expression enhancing action in Arabidopsis thaliana; type: in vivo; details: after 24 hours and 72 hours
[3] = tested on: rice plants at the five-leaf stage; details: 5 mM, no inoculation
[4] = tested on: leaf disks cut out from rice plant leaf blades; assay: Phytoalexin production in rice plant leaf disks immersed in aqueous solution; details: 0.5 mM aqueous solution, 72 hours; not so severe compared with copper chloride

Which “formation of cell death spots” value [1] does the source give for ^4N-nonanoylspermidine here?
The value was “formation of fine cell death spots”.

For `NCCCCN(CCCN)C(=O)CCCCCCCCCCCO` [YIS12OH4N, ^4N-(12-hydroroxylauroyl)-spermidine], which “severity of cell death compared with the compounds not introduced with hydroxyl group (Lau or ^1N Lau)” value [1] is on record?
Its value is “enhanced”.

And the “antifungal activity against the rice blast fungus” value [2]?
Its value is “did not have antifungal activity”.

What about the “formation of inhibition ring against the rice blast fungus” value [2] of the same compound?
Its value is “Formation of inhibition ring was not observed”.

And the “cell death in Arabidopsis thaliana” value (Arabidopsis thaliana)?
The value was “induced severe cell death”.

And the “PR1 gene expression enhancing action relative to 1NHydLau” value (PR1 gene)?
The value was “about 3 times”.

What about the “cell death spots when only the test compounds were sprayed” value [3] of the same compound?
Its value is “cell death spots were not observed”.

What does the source list for `NCCCCNCCCNC(=O)CCCCCCCCCCCO` [YIS12OH1N, 1-N-(12-hydroroxylauroyl)-spermidine]?
severity of cell death compared with the compounds not introduced with hydroxyl group (Lau or ^1N Lau) [1]: enhanced; antifungal activity against the rice blast fungus [2]: did not have antifungal activity; formation of inhibition ring against the rice blast fungus [2]: Formation of inhibition ring was not observed; cell death in Arabidopsis thaliana (Arabidopsis thaliana): induced severe cell death; cell death spots when only the test compounds were sprayed [3]: cell death spots were not observed

`NCCCCNCCCN` [Spd, Spermidine, reference compound] was tested. Which “formation of cell death spots” value [1] did it give?
Its value is “observed only in a part of the treated leaves”.

What does the source list for ^1N-nonanoylspermidine [^1N Non]?
formation of cell death spots [1]: formation of fine cell death spots; cell death in Arabidopsis thaliana (Arabidopsis thaliana): induced severe cell death

How did the “formation of cell death spots” value [1] turn out when ^1N-lauroylspermidine [^1N Lau] was run?
The value was “formation of fine cell death spots”.

Which “formation of cell death spots” value [1] does the source give for ^4N-lauroylspermidine here?
The value was “formation of fine cell death spots; also recorded: potent cell death induction effect”.

What about the “browning of leaf disks” value [4] of the same compound?
Its value is “browning of leaf disks”.

And the phytoalexin accumulation [4]?
The phytoalexin accumulation was “evident phytoalexin accumulation”.
